Measurements published in US7985412B2, “Method of monitoring/controlling thysanoptera” (Keele University, priority 2004, dated 2011).
Structures can show the parent of a compound that is named as a salt.

Assays:
F. occidentalis = experiment: Field trial: catch on blue sticky traps in sweet pepper greenhouses; type: in vivo, Frankliniella occidentalis
Experimental: The biological activity of neryl (S)-2 methylbutanoate was tested in commercial crops of sweet pepper (var. Habana) grown in greenhouses at Zamora (37°42.945′N, 0°57.720′W) near Torre Pacheco in the Murcia region of Spain. The crops were about 110 cm high, planted in rows 1 m apart, and were naturally infested with a low level of F. occidentalis. Three 2-day long experiments were carried out, alternating between two nearby houses, each with an area of about 6500 m^2.
The compound was released from rubber septa (6.3 mm diameter×10.8 mm long) (100706; Aldrich, UK) that had been preextracted in hexane-dichloromethane and dried in an oven at 50° C. Septa were loaded with solutions of the test compound in hexane or with hexane alone (control). After evaporation of the solvent, the rubber septa were stored in aluminum foil bags. They were placed on traps in the field within 2 hr of preparation.
Blue plastic rectangular takitraps (10×25 cm) (Syngenta Bioline, UK), coated on both surfaces with insect glue, were suspended vertically with the base about 10 cm above crop height, by attaching them to crop support strings with a wooden clothes peg. One rubber septum was stuck to the center of the north-facing side of each trap.
Each experiment was laid out in a randomized complete block design with 20 blocks and one replicate per block. Traps were placed about 3.4 m apart down rows of sweet pepper plants with 16 m between each row of traps. The experiment compared two doses, 30 ng and 30 μg, of neryl (S)-2-methylbutanoate with a control.
Thrips caught on the blue sticky traps were examined under a stereoscopic microscope to identify their sex and to distinguish F. occidentalis from about 2% of the thrips that were other species (Thrips spp., aeolothripids, and phlaeothripids). The data were log10(x+1) transformed and analyzed by two-way ANOVA for females, males, and both sexes combined. Multiple comparisons with the control used Dunnett's multiple comparison test. Statistical analysis was carried out with Minitab 14 (Minitab Inc., Pennsylvania, USA).

[1] = test system: female Western Flower Thrips; experiment: Y-tube olfactometer bioassay; type: in vivo, Frankliniella occidentalis; conditions: for effect upon female Western Flower Thrips (in words): doses of 1 ng, and 100 ng; for attractant effect (in words): female Western Flower Thrips
Experimental: Thrips were originally obtained from a commercial glasshouse and then maintained on pot chrysanthemums (Dendranthema x grandiflora (Ramat.) Kitamura) at 25° C. under a repeated cycle consisting of 18 hours of light and 6 hours of dark. The culture on chrysanthemums supplied mixed-age adult females, which were attracted to adult males in olfactometer bioassays, so these were used in the bioassays.
The Y-tube has two branches at an angle of 90° and a stem, which are all 60 mm long with internal diameters of 5 mm. The Y-tube was held horizontal and illuminated from above by four fluorescent tubes (950 lux). It was screened by a 10 cm high matt-black card wall, forming a 280 mm×280 mm square, to minimise any external visual influences. A 50 ml round glass flask with a Drechsel head was inserted in the tube before each branch and a semi-circle of filter paper (Whatman No. 1, diameter 42.5 mm), moistened with water, was placed in each to humidify the air. Connections between tubes are either made with brass swagelock connectors or by inserting narrower tubes into slightly wider tubes. All the glassware and the glass wool were rinsed thoroughly in warm water with Teepol ‘L’ neutral detergent (BDH Laboratory Supplies, Poole), then in distilled water, then in acetone, and left to dry overnight in an oven at 200° C. before each experiment. The connecting Teflon tubing and the swagelock connectors were rinsed thoroughly in warm water with Teepol ‘L’ neutral detergent, then in distilled water, then in hexane, and left to dry overnight in a fume cupboard before each run of an experiment.
Zero-grade clean air from a cylinder (supplied by British Oxygen Corporation, Manchester) was passed through an activated charcoal filter and then along Teflon tubes to two flow meters (Supelco, Sigma-Aldrich, Poole) that regulated the air flow to the two branches of a glass Y-tube. The rate in the two branches was 50 mm s^−1 (59 ml min^−1) and in the stem was 100 mm s^−1 (118 ml min^−1) and were checked with a bubble flow meter.
Adults were placed one at a time in the stem of the Y-tube, by transferring them with a fine paintbrush, and allowed to walk up the Y-tube. A choice was recorded when they first crossed a line 20 mm down either branch from the junction of the “Y”. If a choice was not made within 3 min, it was recorded as “no choice” and excluded from the analysis. Each individual was tested twice to provide two successive choices. The sample flasks, connecting tubing and Y-tube were reversed after every 5 individuals. This reduced possible bias from external influences. Each experiment consisted of 1 to 3 runs on separate days to reduce possible bias from external influences. A total of 25 individuals were tested in each run of an experiment, which lasted about 2 h. Experiments were conducted at 25±1° C.
At the start of each run, 0.2 ml of distilled water was placed on the filter paper in each flask. […] The filter papers were removed and replaced with fresh water and test and control substances every time the equipment was reversed.
It was shown that there was no preference in thrips response by testing mixed-age females (in the absence of a test composition) in the Y-tube olfactometer on 3 separate days. The apparatus was set up as before, but with only water and hexane in each flask. Since the arms of the Y-tube were reversed by rotating the stem by 180° after every five individuals, the difference in the number of choices between left and right and between arm A and arm B could be tested separately. There was no preference to the left or right or for arm A or arm B thus establishing that the apparatus was unbiased.
In each case 25 adult females were tested in 2 or 3 separate runs. The compound was applied in 1 μl hexane.
Example 1 was repeated using each of isobornyl 2-methyl butanoate, isobornyl pivalate and lavandulyl valerate in amounts of 0.1 ng. […]

[2] = 0.1 ng, filter paper placed in Teflon tube instead of glass flask

CC[C@H](C)C(=O)OC/C=C(/C)CCC=C(C)C [N(S)2MB, neryl (S)-2-methylbutanoate]
Mean catch over 2 days ± SE (N = 20) (F. occidentalis; Both sexes, high dose 30 μg on rubber septum): 22.2 ± 2.0
Mean catch over 2 days ± SE (N = 20) (F. occidentalis; Both sexes, low dose 30 ng on rubber septum): 18.7 ± 1.7 ns
Mean catch over 2 days ± SE (N = 20) (F. occidentalis; Females, high dose 30 μg on rubber septum): 9.1 ± 1.2
Mean catch over 2 days ± SE (N = 20) (F. occidentalis; Females, low dose 30 ng on rubber septum): 6.8 ± 0.7 ns
Mean catch over 2 days ± SE (N = 20) (F. occidentalis; Males, high dose 30 μg on rubber septum): 13.2 ± 1.1
Mean catch over 2 days ± SE (N = 20) (F. occidentalis; Males, low dose 30 ng on rubber septum): 11.9 ± 1.2 ns
effect on trap catches (in words) (F. occidentalis; dose of 30 μg, both sexes attracted): increased trap catches significantly

CC(C)=CCC/C(C)=C\COC=O [Neryl Formate, reference compound]
effect upon female Western Flower Thrips (in words) [1]: no effect

C=C(C)C(CC=C(C)C)COC(=O)CCCC (stereo not shown) [lavandulyl valerate]
Preference (%) [1, 2]: 79.2%

CC(C)(C)C(=O)OC1CC2CCC1(C)C2(C)C (stereo not shown) [isobornyl pivalate]
Preference (%) [1, 2]: 61.3%

CCCCC(=O)OC1CC2CCC1(C)C2(C)C (stereo not shown) [isobornyl valerate]
Preference (%) ([1]; 0.002 ng compound in 1 μl hexane, adult females, combined runs): 64.8%
Preference (%) ([1]; 0.02 ng compound in 1 μl hexane, adult females, combined runs): 73.3%
Preference (%) ([1]; 0.1 ng compound in 1 μl hexane, adult females, combined runs): 76.9%
Preference (%) ([1]; 0.2 ng compound in 1 μl hexane, adult females, combined runs): 79.8%
Preference (%) ([1]; 2 ng compound in 1 μl hexane, adult females, combined runs): 60.3%
attractant effect (in words) ([1]; 0.002-2 ng (Table 1) or 0.1 ng (Example 2)): strong attractant

CC(=O)OC/C=C(/C)CCC=C(C)C [Neryl Acetate, reference compound]
effect upon female Western Flower Thrips (in words) [1]: no effect

C=C(C)C(CC=C(C)C)COC(C)=O (stereo not shown) [lavandulyl acetate, reference compound]
attractant effect (in words) ([1]; doses of 0.1 ng, 1 ng, 10 ng, 100 ng and 1000 ng): no attractant effect

CCC(C)C(=O)OC1CC2CCC1(C)C2(C)C (stereo not shown) [Isobornyl 2-methyl butanoate, isobornyl 2-methyl butanoate]
Preference (%) [1, 2]: 72.9%
